Results as given in article PMC337094 (BMC Biochemistry, 2003).

T1: riboflavin synthase of E. coli (Escherichia coli, UniProt P0AFU8)
T1 sequence (P0AFU8 1-213): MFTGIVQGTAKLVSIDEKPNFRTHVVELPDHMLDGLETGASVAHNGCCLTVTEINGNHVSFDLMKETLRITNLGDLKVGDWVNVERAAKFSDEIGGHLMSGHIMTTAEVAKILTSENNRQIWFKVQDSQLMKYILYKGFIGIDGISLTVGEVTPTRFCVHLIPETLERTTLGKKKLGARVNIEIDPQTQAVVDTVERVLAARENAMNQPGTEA

T2: riboflavin synthase of S. pombe (SSP-Rosy) (Schizosaccharomyces pombe, UniProt Q9Y7P0)
T2 sequence (Q9Y7P0 1-208): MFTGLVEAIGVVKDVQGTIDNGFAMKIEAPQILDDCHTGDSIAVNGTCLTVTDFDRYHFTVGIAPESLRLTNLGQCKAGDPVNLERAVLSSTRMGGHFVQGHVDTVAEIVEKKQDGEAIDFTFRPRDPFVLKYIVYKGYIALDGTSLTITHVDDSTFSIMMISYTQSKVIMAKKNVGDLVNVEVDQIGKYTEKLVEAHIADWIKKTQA

T3: riboflavin synthase of B. subtilis (Bacillus subtilis, UniProt P16440)
T3 sequence (P16440 1-215): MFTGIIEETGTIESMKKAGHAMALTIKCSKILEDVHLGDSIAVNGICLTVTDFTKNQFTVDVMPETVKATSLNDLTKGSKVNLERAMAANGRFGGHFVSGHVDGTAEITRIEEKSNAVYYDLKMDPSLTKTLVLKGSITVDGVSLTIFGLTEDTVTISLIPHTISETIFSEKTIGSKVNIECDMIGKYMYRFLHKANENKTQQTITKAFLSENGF

T4: recombinant N-terminal domain of E. coli riboflavin synthase (Escherichia coli, UniProt P0AFU8)
T4 sequence (P0AFU8 1-97): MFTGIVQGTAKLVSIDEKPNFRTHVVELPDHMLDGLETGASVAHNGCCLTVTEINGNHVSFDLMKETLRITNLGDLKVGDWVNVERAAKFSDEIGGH

B1: Riboflavin synthase of Schizosaccharomyces pombe (enzyme, UniProt Q9Y7P0 1-208, looked up)
chain: T2 sequence (Q9Y7P0 1-208)

Key:
[1] = biological target: T1, riboflavin synthase of E. coli; test: […] NMR protein perturbation; assay type: binding; settings: 20 mM phosphate pH 7.0, 100 mM KCl, 10% D2O, 11 °C
[2] = biological target: T2, riboflavin synthase of S. pombe (SSP-Rosy); test: […] NMR protein perturbation; assay type: binding; settings: 20 mM phosphate pH 7.0, 100 mM KCl, 10% D2O, 11 °C
[3] = biological target: lumazine protein of P. leiognathi (Photobacterium leiognathi, UniProt Q06877); test: […] NMR protein perturbation; assay type: binding; settings: 20 mM phosphate pH 7.0, 100 mM KCl, 10% D2O, 11 °C
[4] = biological target: T3, riboflavin synthase of B. subtilis; test: […] NMR protein perturbation; assay type: binding; settings: 20 mM phosphate pH 7.0, 100 mM KCl, 10% D2O, 11 °C
[5] = biological target: T4, recombinant N-terminal domain of E. coli riboflavin synthase; test: […] NMR protein perturbation; assay type: binding; settings: 20 mM phosphate pH 7.0, 100 mM KCl, 10% D2O, 11 °C
[6] = biological target: T2, riboflavin synthase of S. pombe (SSP-Rosy); test: […] NMR displacement of compound 6a; assay type: binding; settings: 20 mM phosphate pH 7.0, 100 mM KCl, 10% D2O, 11 °C; data not shown
AUC = biological target: the molecule itself; test: AUC

Sequence of lumazine protein of P. leiognathi (Q06877 whole entry): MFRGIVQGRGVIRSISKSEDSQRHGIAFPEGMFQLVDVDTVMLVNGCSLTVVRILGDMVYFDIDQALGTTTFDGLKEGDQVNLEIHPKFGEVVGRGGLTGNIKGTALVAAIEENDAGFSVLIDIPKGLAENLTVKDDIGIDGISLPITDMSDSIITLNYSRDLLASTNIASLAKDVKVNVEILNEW

| Molecule | 19F NMR bound-ligand signal [1] | 19F NMR bound-ligand signal [2] | 19F NMR bound-ligand signal [3] | 19F NMR bound-ligand signal [4] | 19F NMR bound-ligand signal [5] | 19F NMR displacement of compound 6a [6] | stoichiometry N (AUC) |
| --- | --- | --- | --- | --- | --- | --- | --- |
| O=c1[nH]c2c(c(=O)[nH]1)N=C(C(F)(F)F)[C@@](O)(C(F)(F)F)N2C[C@H](O)[C@H](O)[C@H](O)CO (single isomer, unassigned; epimer a) [6a, 6,7-bis(trifluoromethyl)-8-ribityllumazine hydrate (epimer A)] | the riboflavin synthases (Figs. 6C,6D,6E) studied show multiple signals | riboflavin synthase of S. pombe binds epimer A | show single lines for each trifluoromethyl group of bound Compound 6a | the riboflavin synthases (Figs. 6C,6D,6E) studied show multiple signals | show single lines for each trifluoromethyl group of bound Compound 6a | – | – |
| Cc1cc2nc3c(=O)[nH]c(=O)nc-3n(C[C@H](O)[C@H](O)[C@H](O)CO)c2cc1C [compound 4, riboflavin] | – | – | – | – | – | could be displaced from S. pombe protein by addition of riboflavin | – |
| O=c1[nH]c(=O)c2nc(C(F)(F)F)c(=O)n(C[C@H](O)[C@H](O)[C@H](O)CO)c2[nH]1 [compound 7, 6-trifluoromethyl-7-oxo-8-ribityllumazine] | The riboflavin synthases of E. coli (Fig. 5C) | in complex with riboflavin synthase of S. pombe shows four signals | lumazine protein (Fig. 5A) | B. subtilis (Fig. 5D) show similar signal multiplicities | show single and much narrower lines for the protein bound ligand | – | – |
| B1 | – | – | – | – | – | – | 3 |
